Patent publication US10165779B2, “Substituted pyrazolylpyrazole derivative and use of same as herbicide” (KYOYU AGRI CO., LTD., priority 2015, dated 2019)

Columns and labels:
Type in all cases: in vivo
[1] = tested on: Echinochloa crus-galli; test: Paddy herbicidal activity test; conditions: irrigated paddy pot, treated at 3.5 leaf stage of Echinochloa crus-galli, 30 days
Protocol: (§1) After treating for 30 days in a glass greenhouse at an average atmospheric temperature of 30° C., the herbicidal efficacy thereof was investigated. Evaluation of herbicidal efficacy was carried out by comparing growth inhibition rate (%) with an untreated group, while evaluation of phytotoxicity was carried out by comparing growth inhibition rate (%) with the state of a complete eradication group, and were evaluated at 11 levels indicated below. […] 2: 20% to less than 30% 3: 30% to less than 40% 4: 40% to less than 50% 5: 50% to less than 60% 6: 60% to less than 70% 7: 70% to less than 80% […]

[2] = tested on: Monochoria vaginalis; test: Paddy herbicidal activity test; conditions: irrigated paddy pot, 30 days
Protocol: as §1

[3] = tested on: Scirpus juncoides; test: Paddy herbicidal activity test; conditions: irrigated paddy pot, 30 days
Protocol: as §1

[4] = tested on: Oryza sativa; test: Paddy herbicidal activity test, phytotoxicity to transplanted rice; conditions: rice transplanted at 2.0 leaf stage, 30 days
Protocol: as §1

[5] = tested on: Amaranthus retroflexus; test: Farming soil treatment test; conditions: soil surface spray prior to weed growth, 30 days
Protocol: (§2) Field soil was filled into a 1/6000 are pot followed by seeding with Digitaria cilaris, Chenopodium album and Amaranthus retroflexus and covering with soil.
(§3) Wettable powders of compounds of formula (I) shown in Table 1 prepared in compliance with the preparation examples were diluted. with water to the prescribed amount of chemical and uniformly sprayed onto each soil surface layer using 100 liters of sprayed water per 10 are prior to weed growth following seeding.
(§4) After treating for 30 days in a glass greenhouse at an average atmospheric temperature of 30° C., the herbicidal efficacy thereof was investigated.
(§5) Evaluation of herbicidal efficacy was carried out in the same manner as the above-mentioned Test Example 1.

[6] = tested on: Chenopodium album; test: Farming soil treatment test; conditions: soil surface spray prior to weed growth, 30 days
Protocol: as §2, §3, §4, §5

[7] = tested on: Digitaria ciliaris; test: Farming soil treatment test; conditions: soil surface spray prior to weed growth, 30 days
Protocol: as §2, §3, §4, §5

[8] = tested on: Amaranthus retroflexus; test: Weed foliar treatment test (Test 3, 1.0 to 2.0 leaf stage); conditions: foliar spray at 1.0 to 2.0 leaf stage of Digitaria ciliaris, 3 weeks
Protocol: (§6) Soil was filled into a 1/6000 are pot followed by seeding with Digitaria ciliaris, Chenopodium album and Amaranthus retroflexus, covering with soil, and cultivating in a glass greenhouse at an average atmospheric temperature of 25° C.
(§7) Wettable powders of Target Compound (I) shown in Table 1 prepared in compliance with the preparation examples were diluted with water to the prescribed amount of chemical and uniformly sprayed onto the weeds using 150 liters of sprayed water per 10 are when Digitaria ciliaris had grown to the 1.0 to 2.0 leaf stage.
(§8) After treating for 3 weeks in a glass greenhouse at an average atmospheric temperature of 25° C., the herbicidal efficacy thereof was investigated.
as §5

[9] = tested on: Chenopodium album; test: as above; conditions: foliar spray at 1.0 to 2.0 leaf stage of Digitaria ciliaris, 3 weeks
Protocol: as §6, §7, §8, §5

[10] = tested on: Digitaria ciliaris; test: as above; conditions: foliar spray at 1.0 to 2.0 leaf stage of Digitaria ciliaris, 3 weeks
Protocol: as §6, §7, §8, §5

[11] = tested on: Digitaria ciliaris; test: Weed foliar treatment test (Test 4, 4.0 to 5.0 leaf stage); conditions: 10 g a.i./10a; foliar spray at 4.0 to 5.0 leaf stage of Digitaria ciliaris (plant height 10 cm to 15 cm); 20 days
Protocol: (§9) Field soil was filled into a 1/4500 are pot followed by seeding with Digitaria ciliaris and Galinsoga parviflora, covering with soil and cultivating in a glass greenhouse at an average atmospheric temperature of 25° C.
as §7, with “100” for “150”, “4.0” for “1.0”, “5.0” for “2.0”, “stage (plant height: 10 cm to 15 cm).” for “stage.”
(§10) After treating for 20 days in a glass greenhouse at an average atmospheric temperature of 25° C., the herbicidal efficacy thereof was investigated.
as §5

[12] = tested on: Galinsoga parviflora; test: as above; conditions: 10 g a.i./10a; foliar spray at 4.0 to 5.0 leaf stage of Digitaria ciliaris; 20 days
Protocol: as §9
as §7, with “100” for “150”, “4.0” for “1.0”, “5.0” for “2.0”, “stage (plant height: 10 cm to 15 cm).” for “stage.”
as §10, §5

## CCOC(=O)N(C(=O)OCC)c1c(C#N)cnn1-c1nn2c(c1Br)CCCC2 [Compound 8]
[1]; 1g a.i./10a
  herbicidal efficacy Echinochloa crus-galli: 10 (10: 100%)
[1]; 5g a.i./10a
  herbicidal efficacy Echinochloa crus-galli: 10 (10: 100%)
[2]; 1g a.i./10a
  herbicidal efficacy Monochoria vaginalis: 10 (10: 100%)
[2]; 5g a.i./10a
  herbicidal efficacy Monochoria vaginalis: 10 (10: 100%)
[3]; 1g a.i./10a
  herbicidal efficacy Scirpus juncoides: 9 (9: 90% to less than 100%)
[3]; 5g a.i./10a
  herbicidal efficacy Scirpus juncoides: 9 (9: 90% to less than 100%)
[4]; 1g a.i./10a
  phytotoxicity Oryza sativa: 0 (0 (exponent): 0% to less than 10% (growth inhibition rate))
[4]; 5g a.i./10a
  phytotoxicity Oryza sativa: 1 (1: 10% to less than 20%)
[5]; 5g a.i./10a
  herbicidal efficacy Amaranthus retroflexus: 10 (10: 100%)
[5]; 10g a.i./10a
  herbicidal efficacy Amaranthus retroflexus: 10 (10: 100%)
[6]; 5g a.i./10a
  herbicidal efficacy Chenopodium album: 9 (9: 90% to less than 100%)
[6]; 10g a.i./10a
  herbicidal efficacy Chenopodium album: 9 (9: 90% to less than 100%)
[7]; 5g a.i./10a
  herbicidal efficacy Digitaria ciliaris: 10 (10: 100%)
[7]; 10g a.i./10a
  herbicidal efficacy Digitaria ciliaris: 10 (10: 100%)
[8]; 5g a.i./10a
  herbicidal efficacy Amaranthus retroflexus: 10 (10: 100%)
[8]; 10g a.i./10a
  herbicidal efficacy Amaranthus retroflexus: 10 (10: 100%)
[9]; 5g a.i./10a
  herbicidal efficacy Chenopodium album: 10 (10: 100%)
[9]; 10g a.i./10a
  herbicidal efficacy Chenopodium album: 10 (10: 100%)
[10]; 5g a.i./10a
  herbicidal efficacy Digitaria ciliaris: 10 (10: 100%)
[10]; 10g a.i./10a
  herbicidal efficacy Digitaria ciliaris: 10 (10: 100%)
[11]
  herbicidal efficacy Digitaria ciliaris: 10 (10: 100%)
[12]
  herbicidal efficacy Galinsoga parviflora: 10 (10: 100%)

## C=CCOC(=O)N(C(=O)OCC=C)c1c(C#N)cnn1-c1nn2c(c1Cl)CCCC2 [Compound 14]
[1]; 1g a.i./10a
  herbicidal efficacy Echinochloa crus-galli: 10 (10: 100%)
[1]; 5g a.i./10a
  herbicidal efficacy Echinochloa crus-galli: 10 (10: 100%)
[2]; 1g a.i./10a
  herbicidal efficacy Monochoria vaginalis: 10 (10: 100%)
[2]; 5g a.i./10a
  herbicidal efficacy Monochoria vaginalis: 10 (10: 100%)
[3]; 1g a.i./10a
  herbicidal efficacy Scirpus juncoides: 9 (9: 90% to less than 100%)
[3]; 5g a.i./10a
  herbicidal efficacy Scirpus juncoides: 10 (10: 100%)
[4]; 1g a.i./10a
  phytotoxicity Oryza sativa: 1 (1: 10% to less than 20%)
[4]; 5g a.i./10a
  phytotoxicity Oryza sativa: 1 (1: 10% to less than 20%)
[5]; 5g a.i./10a
  herbicidal efficacy Amaranthus retroflexus: 10 (10: 100%)
[5]; 10g a.i./10a
  herbicidal efficacy Amaranthus retroflexus: 10 (10: 100%)
[6]; 5g a.i./10a
  herbicidal efficacy Chenopodium album: 9 (9: 90% to less than 100%)
[6]; 10g a.i./10a
  herbicidal efficacy Chenopodium album: 10 (10: 100%)
[7]; 5g a.i./10a
  herbicidal efficacy Digitaria ciliaris: 10 (10: 100%)
[7]; 10g a.i./10a
  herbicidal efficacy Digitaria ciliaris: 10 (10: 100%)
[8]; 5g a.i./10a
  herbicidal efficacy Amaranthus retroflexus: 10 (10: 100%)
[8]; 10g a.i./10a
  herbicidal efficacy Amaranthus retroflexus: 10 (10: 100%)
[9]; 5g a.i./10a
  herbicidal efficacy Chenopodium album: 10 (10: 100%)
[9]; 10g a.i./10a
  herbicidal efficacy Chenopodium album: 10 (10: 100%)
[10]; 5g a.i./10a
  herbicidal efficacy Digitaria ciliaris: 10 (10: 100%)
[10]; 10g a.i./10a
  herbicidal efficacy Digitaria ciliaris: 10 (10: 100%)
[11]
  herbicidal efficacy Digitaria ciliaris: 10 (10: 100%)
[12]
  herbicidal efficacy Galinsoga parviflora: 10 (10: 100%)
